Experimental data from patent publication US20080221132A1, “Multi-Functional Small Molecules as Anti-Proliferative Agents” (priority 2006, published 2008).
Like-named read-outs stand apart in the source and are kept apart here.

What was measured:
[1] = target: C-Raf (Homo sapiens, UniProt P04049, Y340D/Y341D); assay: Raf kinase assay (Upstate kit, MEK-1 substrate, dot blot), C-Raf; format: biochemical; conditions: TABLE 6-B (Section 6 compounds)
Experimental: The Raf kinase assay was performed by following the protocol of Raf kinase assay kit (B-Raf, Upstate, catalog#17-359; C-Raf, Upstate, catalog#17-360) with modifications. Briefly, assay buffer, ATP, substrate and Raf kinase were mixed in a 96 well assay plate. The final kinase assay mixture contained 20 mM MOPS, pH7.2, 25 mM β-glycerol phosphate, 5 mM EGTA, 1 mM sodium orthovanadate, 1 mM DTT, 250 μM ATP and 37.5 mM magnesium chloride, 0.1 μg/well of Raf kinase, and 1 μg/well of MEK-1 substrate protein. Assay samples were incubated for 30 min at room temperature. The kinase reaction was stopped by adding EDTA, pH8 to a final concentration of 25 mM. A 10 μl of the reaction sample was spotted onto nitrocellulose filter and dot blot was performed by adding 1 μg/ml of anti-phospho-MEK-1 antibody in the blocking solution (Licor Bioscience, catalogue #927-40000). The nitrocellulose filter was subsequently incubated with secondary IRDye 800CW goat anti-rabbit antibody (Licor Bioscience, catalogue #926-32211) before reading the signal on an Odyssey imager (Licor Bioscience).

[2] = tested on: Lung_H358; assay: Cell proliferation assay (ATPlite), H358; format: cell-based; conditions: Homo sapiens, NCI-H358; TABLE C; 72 hours, 0.5% fetal bovine serum, ATP content; read-out: IC50 grading, Lung_H358
Experimental: (§1) A representative number of compounds were assayed against several different cell lines using the cell proliferation assay:
(§2) Cell Proliferation Assay:
(§3) Cancer cell lines were plated at 5,000 to 10,000 per well in 96-well flatted bottomed plates with various concentration of compounds. The cells were incubated with compounds for 72 hours in the presence of 0.5% of fetal bovine serum. Growth inhibition was accessed by adenosine triphosphate (ATP) content assay using Perkin Elmer ATPlite kit. ATPlite is an ATP monitoring system based on firefly luciferase. Briefly, 25 μl of mammalian cell lysis solution was added to 50 μl of phenol red-free culture medium per well to lyse the cells and stabilize the ATP. 25 μl of substrate solution was then added to the well and subsequently the luminescence was measured.

[3] = tested on: Pancreas_BxPC3; assay: Cell proliferation assay (ATPlite), BxPC3; format: cell-based; conditions: Homo sapiens, BXPC-3; TABLE C; 72 hours, 0.5% fetal bovine serum, ATP content; read-out: IC50 grading, Pancreas_BxPC3
Experimental: as §1, §2, §3

[4] = tested on: Lung_H2122; assay: Cell proliferation assay (ATPlite), H2122; format: cell-based; conditions: Homo sapiens, NCI-H2122; TABLE C; 72 hours, 0.5% fetal bovine serum, ATP content; read-out: IC50 grading, Lung_H2122
Experimental: as §1, §2, §3

[5] = tested on: Prostate_PC3 (PC-3, prostate adenocarcinoma); assay: Cell proliferation assay (ATPlite), PC3; format: cell-based
Experimental: as §1, §2
as §3, with “The cells were incubated with compounds for 72 hours in the presence of 0.5% of fetal bovine serum.” left out

[6] = tested on: Lung_H460; assay: Cell proliferation assay (ATPlite), H460; format: cell-based; conditions: Homo sapiens, NCI-H460; TABLE C; 72 hours, 0.5% fetal bovine serum, ATP content; read-out: IC50 grading, Lung_H460
Experimental: as §1, §2, §3

[7] = tested on: Lung_H1703; assay: Cell proliferation assay (ATPlite), H1703; format: cell-based; conditions: Homo sapiens, NCI-H1703; TABLE C; 72 hours, 0.5% fetal bovine serum, ATP content; read-out: IC50 grading, Lung_H1703
Experimental: as §1, §2, §3

[8] = tested on: Lung_H1975; assay: Cell proliferation assay (ATPlite), H1975; format: cell-based; conditions: Homo sapiens, NCI-H1975; TABLE C; 72 hours, 0.5% fetal bovine serum, ATP content; read-out: IC50 grading, Lung_H1975
Experimental: as §1, §2, §3

[9] = tested on: Pancreas_Capan1; assay: Cell proliferation assay (ATPlite), Capan1; format: cell-based; conditions: Homo sapiens, CAPAN-1; TABLE C; 72 hours, 0.5% fetal bovine serum, ATP content; read-out: IC50 grading, Pancreas_Capan1
Experimental: as §1, §2, §3

[10] = tested on: Lung_HCC827; assay: Cell proliferation assay (ATPlite), HCC827; format: cell-based; conditions: Homo sapiens, TABLE C, 72 hours, 0.5% fetal bovine serum, ATP content, read-out: IC50 grading, Lung_HCC827
Experimental: as §1, §2, §3

[11] = tested on: Breast_SkBr3 (SKBr3, breast carcinoma); assay: Cell proliferation assay (ATPlite), SkBr3; format: cell-based; conditions: Homo sapiens, SK-BR-3; TABLE D; Breast carcinoma; read-out: IC50 grading, SKBr3
Experimental: as §1, §2
as §3, with “The cells were incubated with compounds for 72 hours in the presence of 0.5% of fetal bovine serum.” left out

[12] = tested on: Breast_MCF7 (MCF-7, breast adenocarcinoma); assay: Cell proliferation assay (ATPlite), MCF7; format: cell-based; conditions: Homo sapiens, TABLE D, Breast adenocarcinoma, read-out: IC50 grading, MCF-7
Experimental: as §1, §2
as §3, with “The cells were incubated with compounds for 72 hours in the presence of 0.5% of fetal bovine serum.” left out

[13] = tested on: Prostate_22RV1 (22RV1, prostate carcinoma); assay: Cell proliferation assay (ATPlite), 22RV1; format: cell-based; conditions: Homo sapiens, TABLE D, Prostate carcinoma, read-out: IC50 grading, 22RV1
Experimental: as §1, §2
as §3, with “The cells were incubated with compounds for 72 hours in the presence of 0.5% of fetal bovine serum.” left out

[14] = tested on: Colon_HCT116 (HCT116, colon cancer); assay: Cell proliferation assay (ATPlite), HCT116; format: cell-based; conditions: Homo sapiens, HCT-116; TABLE D; Colon cancer; read-out: IC50 grading, HCT116
Experimental: as §1, §2
as §3, with “The cells were incubated with compounds for 72 hours in the presence of 0.5% of fetal bovine serum.” left out

[15] = tested on: Epidermoid_A431 (A431, epidermoid carcinoma); assay: Cell proliferation assay (ATPlite), A431; format: cell-based; conditions: Homo sapiens, A-431; TABLE D; Epidermoid carcinoma; read-out: IC50 grading, A431
Experimental: as §1, §2
as §3, with “The cells were incubated with compounds for 72 hours in the presence of 0.5% of fetal bovine serum.” left out

[16] = tested on: HCT-116 (colon) and SKBr3 (breast) cancer cells; assay: Induction of apoptosis, Caspase 3&7 activity (FIG. 4); format: cell-based; conditions: concentration <20 μM
[17] = tested on: A549 NSCLC xenograft; assay: A549 NSCLC Xenograft Model; format: in vivo; conditions: FIG. 11A, 11B
[18] = tested on: Caki-1 (renal carcinoma); assay: Cell proliferation assay (ATPlite), Caki-1; format: cell-based; conditions: Homo sapiens, TABLE D, read-out: IC50 grading, Caki-1
Experimental: as §1, §2
as §3, with “The cells were incubated with compounds for 72 hours in the presence of 0.5% of fetal bovine serum.” left out

[19] = tested on: MDA-MB-231 (breast adenocarcinoma); assay: Cell proliferation assay (ATPlite), MDA-MB-231; format: cell-based; conditions: Homo sapiens, TABLE D, read-out: IC50 grading, MDA-MB-231
Experimental: as §1, §2
as §3, with “The cells were incubated with compounds for 72 hours in the presence of 0.5% of fetal bovine serum.” left out

[20] = tested on: Breast_MDAMB468 (MDA-MB-468, breast adenocarcinoma); assay: Cell proliferation assay (ATPlite), MDA-MB-468; format: cell-based; conditions: Homo sapiens, TABLE D, Breast adenocarcinoma, read-out: IC50 grading, MDA-MB-468
Experimental: as §1, §2
as §3, with “The cells were incubated with compounds for 72 hours in the presence of 0.5% of fetal bovine serum.” left out

[21] = tested on: ER mRNA expression in human ER-negative breast cancer cell lines; conditions: Yang et al. Cancer Res., 2001; cited from earlier work

C-Raf, sequence (P04049 whole entry Y340D/Y341D): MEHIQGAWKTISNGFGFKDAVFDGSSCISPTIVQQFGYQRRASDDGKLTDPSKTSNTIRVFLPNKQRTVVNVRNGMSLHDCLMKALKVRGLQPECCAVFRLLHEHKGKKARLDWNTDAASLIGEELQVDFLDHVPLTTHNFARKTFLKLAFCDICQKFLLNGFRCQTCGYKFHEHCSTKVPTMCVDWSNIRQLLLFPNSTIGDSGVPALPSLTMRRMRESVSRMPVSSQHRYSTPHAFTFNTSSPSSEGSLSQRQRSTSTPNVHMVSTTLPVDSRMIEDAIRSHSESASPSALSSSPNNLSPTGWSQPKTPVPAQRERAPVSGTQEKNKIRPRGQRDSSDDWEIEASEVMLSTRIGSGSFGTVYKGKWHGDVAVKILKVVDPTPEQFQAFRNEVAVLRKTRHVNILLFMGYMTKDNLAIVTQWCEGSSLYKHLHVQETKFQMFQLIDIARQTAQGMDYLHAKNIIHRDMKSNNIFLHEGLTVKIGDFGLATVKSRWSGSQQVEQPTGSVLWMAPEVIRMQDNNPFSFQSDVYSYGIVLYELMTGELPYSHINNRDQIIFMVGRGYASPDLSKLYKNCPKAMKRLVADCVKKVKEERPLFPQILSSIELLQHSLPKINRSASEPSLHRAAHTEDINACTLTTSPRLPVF

| IC50 [2] [µM] | IC50 [3] [µM] | IC50 [4] [µM] | IC50 [6] [µM] | IC50 [7] [µM] | IC50 [8] [µM] | Structure (SMILES) | IC50 [1] [µM] | IC50 [9] [µM] | further results |
| --- | --- | --- | --- | --- | --- | --- | --- | --- | --- |
| – | – | – | – | – | – | O=C(CCCCCNC(=O)c1cc(Oc2ccc(NC(=O)Nc3ccc(Cl)c(C(F)(F)F)c3)cc2)ccn1)NO [Compound 5] | 1 to 10 | – | – |
| 0.1 to 1 | 0.1 to 1 | 0.1 to 1 | 0.1 to 1 | 0.1 to 1 | 0.1 to 1 | COc1cc2ncnc(Nc3ccc(F)c(Cl)c3)c2cc1OCCCCCCC(=O)NO [Compound 6] | – | 1 to 10 | IC50 ([5]; TABLE C, 72 hours, 0.5% fetal bovine serum, ATP content, read-out: IC50 grading, Prostate_PC3): 0.1 to 1 µM |
| – | – | – | – | – | – | O=C(CCCCCCC(=O)Nc1cc(Oc2ccc(NC(=O)Nc3ccc(Cl)c(C(F)(F)F)c3)cc2)ccn1)NO [Compound 12] | < 0.1 | – | – |
| 1 to 10 | 1 to 10 | 1 to 10 | 1 to 10 | 1 to 10 | 1 to 10 | C#Cc1cccc(Nc2ncnc3cc(OC)c(NC(=O)CCCCCCC(=O)NO)cc23)c1 [Compound 44] | – | 1 to 10 | IC50 [10]: 0.1 to 1 µM |
| – | – | – | – | – | – | C#Cc1cccc(Nc2ncnc3cc(OCCOC)c(OCCOC)cc23)c1 [Erlotinib, reference compound] | – | – | IC50 [11]: ≥ 5 µM; IC50 [12]: ≥ 5 µM; IC50 [13]: 0.05 to 0.5 µM; IC50 ([5]; TABLE D, Prostate adenocarcinoma, read-out: IC50 grading, PC-3): ≥ 5 µM; IC50 [14]: ≥ 5 µM; IC50 [15]: 0.5 to 5 µM; induction of apoptosis (Caspase 3&7 activity) [16]: inactive; effect on tumor growth / tumor size [17]: did not significantly affect tumor size; IC50 [18]: 0.05 to 0.5 µM; IC50 [19]: ≥ 5 µM; IC50 [20]: 0.5 to 5 µM |
| – | – | – | – | – | – | CC(/C=C/C(=O)NO)=C\[C@@H](C)C(=O)c1ccc(N(C)C)cc1 [TSA, trichostatin A] | – | – | fold increase in ER mRNA expression [21]: 5 fold |
